Experimental data: patent US10941136B2, “Quinazoline derivative or its salt and pharmaceutical composition comprising the same” (YUHAN CORPORATION, priority 2016, dated 2021)

Legend:
Type in all cases: biochemical
[1] = biological target: T1, PI3Kδ (p110δ/p85α)(h) (Homo sapiens, UniProt O00329); assay: PI3K-HTRF in vitro enzyme assay, PI3Kδ; details: enzyme 0.1 μg/ml
T1 construct: purchased Upstate (Millipore Co, Billerica, Mass., USA) #14˜604
Experimental: (§1) The compounds of the present invention were tested for the activity of phosphatidylinositol 3-kinase delta (PI3K) by using a PI3K enzyme-homogeneous time resolved fluorescence (PI3K-HTRF) kit, which is available under Upstate™ kit (Millipore Co, Billerica, Mass., USA). This kit system measures indirectly the amount of PIP3 produced via PI3K by detecting competitive inhibition of fluorescence complex formation.
(§2) There were used three kinds of buffer solutions, i.e., reaction buffer, stop solution, and detection solution. The reaction buffer was prepared by diluting Reaction Buffer (provided in Update™ kit) with distilled water 4 times and adding DTT to a concentration of 5 mM. The stop solution was prepared by combining STOP A and B Solutions (provided in Update™ kit) in a ratio of 3:1. The detection solution was prepared by combining Detection Solution A, B and C (provided in Update™ kit) in a ratio of 1:1:18. A substrate solution and an ATP solution were prepared by diluting the 1 mM PIP2 (phosphatidyl inositol 4,5 bi-phosphate) stock solution (provided in Update™ kit) and 10 mM ATP (Sigma-aldrich Co., St. Louis, Mo., USA) stock solution with the reaction buffer to concentrations of 20 μM and 40 μM, respectively. An enzyme solution was prepared by diluting PI3Kδ (#14˜604; Upstate™ kit) with the substrate solution to the concentration of 0.2 μg/ml (final reaction concentration: 0.1 μg/ml).
(§3) The test groups were prepared by dissolving each compound in 100% DMSO at 40× the final concentration and then diluting 10-fold with the reaction buffer. 5 μl of each diluted test group solution was transferred to a 384 well low flange white flat bottom microplate (#3572, Corning Life Sciences, Lowell, Mass., USA). We performed centrifuge (1 minute, 1000 rpm) and shaking for 2 minutes after every solution-adding step in this experiment. Next, 10 μl of the enzyme solution was added to each well. A mixed solution of the substrate solution (10 μl) plus 5 μl of the 100% DMSO diluted solution without test compound (i.e., 10% DMSO solution) was used as a negative control. And also, a mixed solution of enzyme solution (10 μl) plus 5 μl of the 100% DMSO diluted solution without test compound (i.e., 10% DMSO solution) was used as a positive control. This plate was pre-incubated for 10 minutes in a 25° C. incubator. After the pre-incubation, the phosphorylation reaction was induced by adding 5 μl of the ATP solution and the plate was incubated for 30 minutes in a 25° C. incubator. This enzyme reaction was stopped by 5 μl of the stop solution and then 5 μl of the detection solution was added thereto. To obtain enough fluorescence responses, the plate was incubated for 2 hours in a 25° C. incubator protected from light.
(§4) The time-resolved fluorescence resonance energy transfer (TR-FRET) rate was measured (emission wavelength: 665 nm, 620 nm, excitation wavelength: 313 nm) by using a Flexstation3 Micro plate reader (Molecular Devices, USA). TR-FRET Rate was calculated based on the Equation 1 and using these TR-FRET Rates, % inhibition rate of each compound was calculated based on the Equation 2. The IC50 values, i.e., the concentration of a test compound that inhibits 50% of PI3Kδ activity in vitro, are generated by Softmax program (Molecular Devices, USA). TR-FRET Rate=(Signal at 665 nm emission wavelength/Signal at 620 nm emission wavelength)×10000 <Equation 1> % Inhibition Rate=[(TR-FRET Rate of the test group−TR-FRET Rate of the positive control group)/(TR-FRET Rate of the negative control group−TR-FRET Rate of the positive control group)]×100 <Equation 2>

[2] = biological target: T2, PI3Kα (p110α/p85α)(h) (Homo sapiens, UniProt P42336); assay: PI3K-HTRF in vitro enzyme assay, PI3Kα; details: enzyme 0.1 μg/ml
T2 construct: purchased Upstate (Millipore Co) #14-602
Experimental: as §1, §2, §3, §4
(§5) The compounds of the present invention were assayed for the activities of PI3K subtypes, i.e., PI3Kα, PI3Kβ and PI3Kγ, using the same procedures as in Experimental Example 1. […]

[3] = biological target: T3, PI3Kβ (p110β/p85α)(h) (Homo sapiens, UniProt P42338); assay: PI3K-HTRF in vitro enzyme assay, PI3Kβ; details: enzyme 0.4 μg/ml
T3 construct: purchased Upstate (Millipore Co) #14-603
Experimental: as §1, §2, §3, §4, §5

[4] = biological target: T4, PI3Kγ (p120γ)(h) (Homo sapiens, UniProt P48736); assay: PI3K-HTRF in vitro enzyme assay, PI3Kγ; details: enzyme 0.4 μg/ml
T4 construct: purchased Upstate (Millipore Co) #14-558
Experimental: as §1, §2, §3, §4, §5

T3 sequence (P42338 whole entry): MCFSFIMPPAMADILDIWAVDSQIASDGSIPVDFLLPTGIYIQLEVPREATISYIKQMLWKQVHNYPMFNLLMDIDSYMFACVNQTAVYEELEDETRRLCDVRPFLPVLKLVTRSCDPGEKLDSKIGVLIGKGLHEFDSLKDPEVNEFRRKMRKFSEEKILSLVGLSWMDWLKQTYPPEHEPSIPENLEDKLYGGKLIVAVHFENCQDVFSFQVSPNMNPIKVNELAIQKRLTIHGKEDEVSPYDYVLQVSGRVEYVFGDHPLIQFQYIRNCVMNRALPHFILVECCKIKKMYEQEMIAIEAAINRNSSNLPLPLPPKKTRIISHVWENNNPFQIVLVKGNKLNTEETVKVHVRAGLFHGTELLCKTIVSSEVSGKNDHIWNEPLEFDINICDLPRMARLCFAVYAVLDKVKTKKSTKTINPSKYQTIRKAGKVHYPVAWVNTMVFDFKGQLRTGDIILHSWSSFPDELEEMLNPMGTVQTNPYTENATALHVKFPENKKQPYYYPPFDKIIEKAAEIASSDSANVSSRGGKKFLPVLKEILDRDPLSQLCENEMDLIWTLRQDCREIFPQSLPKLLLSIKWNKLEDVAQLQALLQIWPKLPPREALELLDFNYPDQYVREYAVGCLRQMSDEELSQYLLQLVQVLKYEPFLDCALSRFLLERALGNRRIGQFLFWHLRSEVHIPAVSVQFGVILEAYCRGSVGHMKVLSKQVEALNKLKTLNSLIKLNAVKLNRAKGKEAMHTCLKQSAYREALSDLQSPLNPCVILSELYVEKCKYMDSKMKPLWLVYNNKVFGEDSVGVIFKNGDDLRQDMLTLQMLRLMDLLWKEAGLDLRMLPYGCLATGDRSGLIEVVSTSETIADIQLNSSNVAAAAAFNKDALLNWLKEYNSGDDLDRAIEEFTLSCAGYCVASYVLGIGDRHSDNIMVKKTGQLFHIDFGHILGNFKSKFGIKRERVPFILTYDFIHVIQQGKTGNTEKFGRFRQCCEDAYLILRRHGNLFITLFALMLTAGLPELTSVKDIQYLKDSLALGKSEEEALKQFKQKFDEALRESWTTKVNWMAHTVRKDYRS
T3 sequence (P27986 whole entry partner): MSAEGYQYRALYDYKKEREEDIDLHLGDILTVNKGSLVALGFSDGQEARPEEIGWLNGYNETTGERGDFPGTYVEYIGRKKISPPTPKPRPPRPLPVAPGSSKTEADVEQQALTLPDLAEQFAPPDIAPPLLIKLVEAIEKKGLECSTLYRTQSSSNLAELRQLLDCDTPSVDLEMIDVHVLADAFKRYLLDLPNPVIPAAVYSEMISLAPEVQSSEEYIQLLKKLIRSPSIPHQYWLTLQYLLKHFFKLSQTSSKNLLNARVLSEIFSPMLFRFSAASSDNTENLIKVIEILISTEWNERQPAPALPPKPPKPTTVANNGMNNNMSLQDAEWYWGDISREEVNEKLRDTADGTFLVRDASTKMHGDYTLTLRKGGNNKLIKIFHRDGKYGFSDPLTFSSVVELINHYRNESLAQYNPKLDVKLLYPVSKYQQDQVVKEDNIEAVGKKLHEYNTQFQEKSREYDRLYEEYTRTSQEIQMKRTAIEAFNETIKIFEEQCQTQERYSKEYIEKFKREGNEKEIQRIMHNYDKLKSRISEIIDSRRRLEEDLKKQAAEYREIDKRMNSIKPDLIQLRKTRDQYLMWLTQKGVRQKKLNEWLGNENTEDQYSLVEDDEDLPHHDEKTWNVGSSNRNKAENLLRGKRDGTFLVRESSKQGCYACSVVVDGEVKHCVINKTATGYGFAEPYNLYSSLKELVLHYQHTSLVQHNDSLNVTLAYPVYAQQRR
T1 sequence (O00329 whole entry): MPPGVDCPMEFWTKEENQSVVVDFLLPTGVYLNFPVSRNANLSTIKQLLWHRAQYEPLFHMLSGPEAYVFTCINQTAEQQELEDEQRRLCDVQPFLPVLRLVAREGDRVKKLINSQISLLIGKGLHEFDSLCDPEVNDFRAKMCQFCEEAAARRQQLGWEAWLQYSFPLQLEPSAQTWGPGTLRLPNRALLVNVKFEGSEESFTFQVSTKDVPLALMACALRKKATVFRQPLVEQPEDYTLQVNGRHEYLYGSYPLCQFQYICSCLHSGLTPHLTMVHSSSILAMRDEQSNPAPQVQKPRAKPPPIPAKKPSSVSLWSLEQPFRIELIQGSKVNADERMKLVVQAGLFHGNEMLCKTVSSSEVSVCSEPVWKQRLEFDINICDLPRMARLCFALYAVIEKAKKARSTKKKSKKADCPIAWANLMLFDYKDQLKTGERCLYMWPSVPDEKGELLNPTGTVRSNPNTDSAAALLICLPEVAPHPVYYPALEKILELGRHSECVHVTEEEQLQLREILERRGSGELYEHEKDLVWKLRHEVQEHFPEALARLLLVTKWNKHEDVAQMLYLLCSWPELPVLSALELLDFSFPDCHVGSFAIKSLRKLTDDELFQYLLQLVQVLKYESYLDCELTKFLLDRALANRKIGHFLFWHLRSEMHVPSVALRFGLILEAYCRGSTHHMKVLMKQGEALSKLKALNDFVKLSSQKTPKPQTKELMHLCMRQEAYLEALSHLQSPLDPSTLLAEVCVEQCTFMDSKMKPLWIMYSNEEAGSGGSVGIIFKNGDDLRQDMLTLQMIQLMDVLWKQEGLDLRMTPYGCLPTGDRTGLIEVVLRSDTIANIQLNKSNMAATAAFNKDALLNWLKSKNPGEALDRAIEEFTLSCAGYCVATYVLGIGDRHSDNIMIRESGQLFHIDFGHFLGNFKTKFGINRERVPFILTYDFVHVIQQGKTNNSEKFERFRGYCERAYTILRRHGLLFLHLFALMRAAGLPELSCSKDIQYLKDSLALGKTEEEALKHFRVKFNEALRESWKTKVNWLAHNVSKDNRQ
T1 sequence (P27986 whole entry partner): as the sequence (P27986 whole entry partner) above
T2 sequence (P42336 whole entry): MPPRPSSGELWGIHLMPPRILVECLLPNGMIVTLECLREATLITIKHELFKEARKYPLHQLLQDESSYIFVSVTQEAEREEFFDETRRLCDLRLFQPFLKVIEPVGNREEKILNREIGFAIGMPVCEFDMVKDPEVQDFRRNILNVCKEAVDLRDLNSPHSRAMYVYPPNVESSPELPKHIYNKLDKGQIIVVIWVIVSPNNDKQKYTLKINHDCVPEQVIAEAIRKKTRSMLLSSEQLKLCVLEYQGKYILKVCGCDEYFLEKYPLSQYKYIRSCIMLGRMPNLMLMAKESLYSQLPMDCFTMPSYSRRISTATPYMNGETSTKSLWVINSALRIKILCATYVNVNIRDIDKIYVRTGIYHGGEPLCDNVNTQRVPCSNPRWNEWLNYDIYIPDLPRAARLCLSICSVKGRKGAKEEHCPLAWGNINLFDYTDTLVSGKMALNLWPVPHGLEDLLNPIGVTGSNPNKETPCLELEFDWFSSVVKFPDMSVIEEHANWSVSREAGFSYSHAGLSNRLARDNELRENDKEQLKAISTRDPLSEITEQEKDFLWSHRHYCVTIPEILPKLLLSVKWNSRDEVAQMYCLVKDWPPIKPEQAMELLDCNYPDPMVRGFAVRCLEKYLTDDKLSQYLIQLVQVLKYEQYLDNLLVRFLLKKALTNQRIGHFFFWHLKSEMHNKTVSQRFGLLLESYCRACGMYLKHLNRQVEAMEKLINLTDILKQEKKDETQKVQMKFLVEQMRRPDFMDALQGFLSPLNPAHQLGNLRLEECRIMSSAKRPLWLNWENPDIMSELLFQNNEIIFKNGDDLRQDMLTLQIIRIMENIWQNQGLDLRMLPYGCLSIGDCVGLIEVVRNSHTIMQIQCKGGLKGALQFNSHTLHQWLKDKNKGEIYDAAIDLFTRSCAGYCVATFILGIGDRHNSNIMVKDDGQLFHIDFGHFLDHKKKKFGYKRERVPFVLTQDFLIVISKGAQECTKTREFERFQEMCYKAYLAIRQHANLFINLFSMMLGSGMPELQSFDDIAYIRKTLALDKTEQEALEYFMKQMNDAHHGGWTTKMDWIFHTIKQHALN
T2 sequence (P27986 whole entry partner): as the sequence (P27986 whole entry partner) above
T4 sequence (P48736 whole entry): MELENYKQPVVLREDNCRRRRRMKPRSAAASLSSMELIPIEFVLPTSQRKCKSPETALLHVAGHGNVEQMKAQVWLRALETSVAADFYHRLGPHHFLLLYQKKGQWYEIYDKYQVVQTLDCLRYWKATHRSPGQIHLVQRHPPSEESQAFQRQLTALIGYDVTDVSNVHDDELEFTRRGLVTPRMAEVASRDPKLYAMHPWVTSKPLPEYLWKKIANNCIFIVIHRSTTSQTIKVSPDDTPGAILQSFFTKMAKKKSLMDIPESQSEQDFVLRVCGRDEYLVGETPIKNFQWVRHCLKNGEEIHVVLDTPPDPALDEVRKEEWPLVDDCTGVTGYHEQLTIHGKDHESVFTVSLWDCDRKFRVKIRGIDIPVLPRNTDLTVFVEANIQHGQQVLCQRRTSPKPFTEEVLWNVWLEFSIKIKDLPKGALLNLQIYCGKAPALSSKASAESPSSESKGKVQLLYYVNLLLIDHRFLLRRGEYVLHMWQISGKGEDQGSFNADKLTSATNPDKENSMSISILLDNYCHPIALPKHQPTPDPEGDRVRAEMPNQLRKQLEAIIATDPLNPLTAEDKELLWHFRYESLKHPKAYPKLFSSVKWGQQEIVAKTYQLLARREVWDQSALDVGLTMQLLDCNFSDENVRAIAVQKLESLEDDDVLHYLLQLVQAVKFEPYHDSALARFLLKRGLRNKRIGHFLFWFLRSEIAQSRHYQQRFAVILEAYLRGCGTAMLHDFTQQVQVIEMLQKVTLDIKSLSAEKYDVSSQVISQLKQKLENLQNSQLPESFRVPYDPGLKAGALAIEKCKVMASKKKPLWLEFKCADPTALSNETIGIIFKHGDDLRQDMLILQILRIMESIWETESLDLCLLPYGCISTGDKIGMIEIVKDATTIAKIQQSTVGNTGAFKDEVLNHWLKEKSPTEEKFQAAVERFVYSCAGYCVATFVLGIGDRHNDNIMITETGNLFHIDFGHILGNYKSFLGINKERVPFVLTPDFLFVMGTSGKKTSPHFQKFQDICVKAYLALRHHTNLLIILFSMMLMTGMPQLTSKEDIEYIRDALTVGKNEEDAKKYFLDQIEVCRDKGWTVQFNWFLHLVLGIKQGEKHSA

Row | Compound | IC50 [1] [nM] | IC50 [2] [nM] | IC50 [3] [nM] | IC50 [4] [nM]
1 | CCOc1ncc(-c2cccc3cc([C@H](C)Nc4ncnc5ccc(C#N)cc45)n(-c4ccccc4)c(=O)c23)cn1 [Example 34, (S)-4-((1-(8-(2-ethoxypyrimidin-5-yl)-1-oxo-2-phenyl-1,2-dihydroisoquinolin-3-yl)ethyl)amino)quinazoline-6-carbonitrile] | 17 | 1350 | 7390 | 324
2 | C[C@H](Nc1ncnc2ccc(C#N)cc12)c1nc2cccc(-c3cnc(N)nc3)c2c(=O)n1-c1ccccc1 [Example 2, (S)-4-((1-(5-(2-aminopyrimidin-5-yl)-4-oxo-3-phenyl-3,4-dihydroquinazolin-2-yl)ethyl)amino)quinazoline-6-carbonitrile] | 4 | 598 | 6710 | 117
3 | CC(C)[C@H](Nc1ncnc2cccc(F)c12)c1cc2cccc(-c3cnc(N)nc3)c2c(=O)n1-c1ccccc1 [Example 46, (S)-8-(2-aminopyrimidin-5-yl)-3-(1-((5-fluoroquinazolin-4-yl)amino)-2-methylpropyl)-2-phenylisoquinolin-1(2H)-one] | 12 | 2950 | 7950 | 1580
4 | CCC[C@H](Nc1ncnc2ccc(C#N)cc12)c1nc2cccc(-c3cnc(OC)nc3)c2c(=O)n1-c1ccccc1 [Example 10, (S)-4-((1-(5-(2-methoxypyrimidin-5-yl)-4-oxo-3-phenyl-3,4-dihydroquinazolin-2-yl)butyl)amino)quinazoline-6-carbonitrile] | 17 | 3420 | 7500 | 465
5 | COc1ncc(-c2cccc3cc([C@H](C)Nc4ncnc5ccc(C#N)cc45)n(-c4ccccc4)c(=O)c23)cn1 [Example 33, (S)-4-((1-(8-(2-methoxypyrimidin-5-yl)-1-oxo-2-phenyl-1,2-dihydroisoquinolin-3-yl)ethyl)amino)quinazoline-6-carbonitrile] | 10 | 1240 | 6690 | 155
6 | C[C@H](Nc1ncnc2ccc(C#N)cc12)c1cc2cccc(-c3cncnc3)c2c(=O)n1-c1ccccc1 [Example 32, (S)-4-((1-(1-oxo-2-phenyl-8-(pyrimidin-5-yl)-1,2-dihydroisoquinolin-3-yl)ethyl)amino)quinazoline-6-carbonitrile] | 2 | 1730 | 4800 | 416
7 | CCC[C@H](Nc1ncnc2ccc(C#N)cc12)c1nc2cccc(-c3cnc(OCC)nc3)c2c(=O)n1-c1ccccc1 [Example 11, (S)-4-((1-(5-(2-ethoxypyrimidin-5-yl)-4-oxo-3-phenyl-3,4-dihydroquinazolin-2-yl)butyl)amino)quinazoline-6-carbonitrile] | 16 | 4740 | 8950 | 432
8 | C[C@H](Nc1ncnc2ccc(C#N)cc12)c1nc2cccc(-c3cncnc3)c2c(=O)n1C1CC1 [Example 17, (S)-4-((1-(3-cyclopropyl-4-oxo-5-(pyrimidin-5-yl)-3,4-dihydroquinazolin-2-yl)ethyl)amino)quinazoline-6-carbonitrile] | 10 | 2640 | 3820 | 947
9 | CCOc1ncc(-c2cccc3nc([C@H](C)Nc4ncnc5ccc(C#N)cc45)n(C4CC4)c(=O)c23)cn1 [Example 19, (S)-4-((1-(3-cyclopropyl-5-(2-ethoxypyrimidin-5-yl)-4-oxo-3,4-dihydroquinazolin-2-yl)ethyl)amino)quinazoline-6-carbonitrile] | 21 | 2020 | 6730 | 593

The next lines start with the values.

Row | IC50 [1] [nM] | IC50 [2] [nM] | IC50 [3] [nM] | IC50 [4] [nM] | Compound
10 | 2 | 909 | 9380 | 489 | CCOc1ncc(-c2cccc3cc([C@H](CC)Nc4ncnc5ccc(C#N)cc45)n(-c4ccccc4)c(=O)c23)cn1 [Example 41, (S)-4-((1-(8-(2-ethoxypyrimidin-5-yl)-1-oxo-2-phenyl-1,2-dihydroisoquinolin-3-yl)propyl)amino)quinazoline-6-carbonitrile]
11 | 6 | 621 | 3060 | 108 | CCC[C@H](Nc1ncnc2ccc(C#N)cc12)c1nc2cccc(-c3cnc(N)nc3)c2c(=O)n1-c1ccccc1 [Example 12, (S)-4-((1-(5-(2-aminopyrimidin-5-yl)-4-oxo-3-phenyl-3,4-dihydroquinazolin-2-yl)butyl)amino)quinazoline-6-carbonitrile]
12 | 13 | 650 | 3730 | 371 | CC[C@H](Nc1ncnc2ccc(C#N)cc12)c1nc2cccc(-c3cnc(N)nc3)c2c(=O)n1C1CC1 [Example 21, (S)-4-((1-(5-(2-aminopyrimidin-5-yl)-3-cyclopropyl-4-oxo-3,4-dihydroquinazolin-2-yl)propyl)amino)quinazoline-6-carbonitrile]
13 | 10 | 1460 | 9590 | 1230 | CC[C@H](Nc1ncnc2cccc(F)c12)c1nc2cccc(-c3cnc(N)nc3)c2c(=O)n1-c1ccccc1 [Example 25, (S)-5-(2-aminopyrimidin-5-yl)-2-(1-((5-fluoroquinazolin-4-yl)amino)propyl)-3-phenylquinazolin-4(3H)-one]
14 | 26 | 635 | 9820 | 67 | Cc1ncc(-c2cccc3cc([C@H](C)Nc4ncnc5ccc(C#N)cc45)n(-c4ccc(F)cc4)c(=O)c23)cn1 [Example 38, (S)-4-((1-(2-(4-fluorophenyl)-8-(2-methylpyrimidin-5-yl)-1-oxo-1,2-dihydroisoquinolin-3-yl)ethyl)amino)quinazoline-6-carbonitrile]
15 | 13 | 2670 | 8860 | 283 | C[C@H](Nc1ncnc2cccc(F)c12)c1cc2cccc(-c3cnc(N)nc3)c2c(=O)n1-c1ccccc1 [Example 43, (S)-8-(2-aminopyrimidin-5-yl)-3-(1-((5-fluoroquinazolin-4-yl)amino)ethyl)-2-phenylisoquinolin-1(2H)-one]
16 | 25 | 673 | 5310 | 93 | C[C@H](Nc1ncnc2ccc(C#N)cc12)c1cc2cccc(-c3cnc(N(C)C)nc3)c2c(=O)n1-c1ccccc1 [Example 35, (S)-4-((1-(8-(2-(dimethylamino)pyrimidin-5-yl)-1-oxo-2-phenyl-1,2-dihydroisoquinolin-3-yl)ethyl)amino)quinazoline-6-carbonitrile]
17 | 10 | 418 | 8760 | 67 | C[C@H](Nc1ncnc2ccc(C#N)cc12)c1cc2cccc(-c3cnc(C4CC4)nc3)c2c(=O)n1-c1ccccc1 [Example 37, (S)-4-((1-(8-(2-cyclopropylpyrimidin-5-yl)-1-oxo-2-phenyl-1,2-dihydroisoquinolin-3-yl)ethyl)amino)quinazoline-6-carbonitrile]
